20 compounds from US6159988A, “Arylcycloalkyl derivatives, their production and their use” (Hoeschst Aktiengesellschaft, priority 1992, dated 2000) can be followed below.

Structures can show the parent of a compound that is named as a salt.

For this experiment, the system named is IL-1. Briefly: IL-1 release inhibition (Table 2). Type of experiment: cell-based, human. As to the method:
10 ml of human blood were carefully drawn from the antecubital vein using a syringe containing 1 ml of a solution of 3.8% sodium citrate. After dilution with 10 ml PM 16 (Serva, Heidelberg, FRG) and underlayering with 15 ml Lymphoprep® (Molter GmbH), the sample was centrifuged at 400×g for 40 min at 20° C. The mononuclear cells forming a white ring between lymphoprep and plasma were carefully aspirated by a syringe, diluted 1:1 with PM 16 and centrifuged again at 400×g for 10 min. […] was washed with 10 ml RPMI 1640 (Gibco, Berlin, FRG), containing additionally 300 mg/l L-glutamine, 25 mmol/l […] HEPES, 100 μg/ml streptomycin and 100 μg/ml penicillin. Finally, using a Coulter counter IT, the cell suspension was adjusted to 5×10^6 cells/ml. The cells consist of approx. 90% lymphocytes and 10% monocytes.
10 μl DMSO/water (1:10, v/v), containing the test compound, was added to 480 μl of a suspension, containing 5×10^6 mononuclear cells. The synthesis of IL-1 was stimulated by the addition of 10 μl DSMO/water (1:10, v/v), containing 0,5 μg LPS (Salmonella abortus equi, Sigma). After incubation at 37° C. for 18 hours, the samples were cooled to 0° C. and centrifuged for 1 min. in a table centrifuge. 25 μl aliquots of the supernatant were assayed for IL-1 alpha activity using a commercially available 125-J-IL-1-alpha radioimmunoassay Kit (Amersham/UK), and for IL-1 beta in a similar way using the specific test kit. Control experiments were performed as described without test compound, or with cycloheximide as a test compound.

The mark [1] stands for this setting: Homo sapiens, read-out: IL-1 Rel. Inhib.

Consider `COc1cc(OC)c(C2CCCCC2OC(=O)[C@H](C)N)c(O)c1C(=O)/C=C/c1cccc(Br)c1` (mixture of isomers) [Compound 7 of Table 2, trans-(+/-)-2-[4,6-Dimethoxy-2-hydroxy-3-(3-(3-bromophenyl)prop-2-(E)-enoyl)phenyl]cyclohexyl-2-(S)-amino propanoate], for which, under setting [1], the inhibition at 1 µM was found to be 35%. Turning to `COc1ccc(C(=O)/C=C/c2cccc(Br)c2)c(O)c1[C@@H]1CCCC[C@H]1O` (racemic) [Compound 16 of Table 2, trans-(+/-)-2-[6-Methoxy-2-hydroxy-3-(3-(3-bromophenyl))prop-2-(E)-enoyl]phenylcyclohexanol], the “IL-1 Rel. Inhib.” value (11.6 μM) was determined as 81%. Take `COc1cc(O)c(C(=O)/C=C/c2cccc(Br)c2)c(OC)c1[C@@H]1CCCC[C@H]1O` (racemic) [Compound 17 of Table 2, trans-(+/-)-2-[2,6-Dimethoxy-4-hydroxy-3-(3-(3-bromophenyl))prop-2-(E)-enoyl]phenylcyclohexanol]: the “IL-1 Rel. Inhib.” value (10.8 μM) was determined as 71%.

Take `COc1ccc([C@@H]2CCCC[C@H]2O)c(O)c1C(=O)/C=C/c1cccc(Br)c1.COc1ccc([C@@H]2CCCC[C@H]2O)c(O)c1C(=O)/C=C/c1cccc(Br)c1.O` (racemic) [Compound 18 of Table 2, trans-(+/-)-2-[2-Hydroxy-4-methoxy-3-(3-(3-bromophenyl))prop-2-(E)-enoyl)phenylcyclohexanol hemihydrate]: where the note is “5 μM”, the “IL-1 Rel. Inhib.” value was 71%. Take `COc1cc(OC)c([C@@H]2CCCC[C@H]2OC(C)=O)c(O)c1C(=O)/C=C/c1cccc(Br)c1` (relative stereo) [Compound 1 of Table 2]: the inhibition at 10 µM under setting [1] came to 41%. With `COc1cc(OC)c([C@@H]2CCCC[C@H]2OC(=O)CN(C)C)c(O)c1C(=O)/C=C/c1cccc(Br)c1` (relative stereo) [Compound 2 of Table 2], the inhibition at 17 µM under setting [1] is 50%. As for `COc1cc(OC)c([C@@H]2CCCC[C@H]2OC(=O)CN)c(O)c1C(=O)/C=C/c1cccc(Br)c1` (relative stereo) [Compound 3 of Table 2, trans-(+/-)-2-[4,6-Dimethoxy-2-hydroxy-3-(3-(3-bromophenyl)prop-2-(E)-enoyl)phenyl]cyclohexyl-2-amino acetate hydrochloride monohydrate], the inhibition at 17 µM under setting [1] was 63%. On to `COc1cc(OC)c([C@@H]2CCCC[C@H]2OC(=O)CN2CCCCC2)c(O)c1C(=O)/C=C/c1cccc(Br)c1` (relative stereo) [Compound 4 of Table 2], for which, where the note is “Homo sapiens, 16 μM, read-out: IL-1 Rel. Inhib.”, the inhibition at 16 µM was 43%. Regarding `COc1cc(OC)c([C@H]2CCCC[C@H]2O)c(O)c1C(=O)/C=C/c1cccc(Br)c1` (relative stereo) [Compound 11 of Table 2, cis-(+/-)-2-[4,6-Dimethoxy-2-hydroxy-3-(3-(3-bromophenyl))prop-2-(E)-enoyl]phenylcyclohexanol], the inhibition at 10.8 µM (Homo sapiens, 10.8 μM, read-out: IL-1 Rel. Inhib.) worked out at 90%.

With `COc1cc(OC)c([C@@H]2CCCC[C@H]2O)c(O)c1C(=O)CCc1cccc(Br)c1` (relative stereo) [Compound 12 of Table 2], under “Homo sapiens, 10.5 μM, read-out: IL-1 Rel. Inhib.”, the inhibition at 10.5 µM was found to be 26%. Regarding `COc1ccc(CCC(=O)c2c(OC)cc(OC)c([C@@H]3CCCC[C@H]3OC(=O)CN)c2O)cc1OC` (relative stereo) [Compound 19 of Table 2, trans-(+/-)-1-[4,6-Dimethoxy-2-hydroxy-3-(2-(β-amino)acetoxy)cyclohexyl]phenyl-(3-(3,4-dimethoxy)phenyl)propanone hydrochloride monohydrate], the inhibition at 10 µM under setting [1] is 51%. Take `COc1cc(OC)c([C@@H]2CCCC[C@H]2O)c(O)c1C(=O)/C=C/c1cccc(C)c1` (relative stereo) [Compound 20 of Table 2]: the inhibition at 10 µM under setting [1] worked out at 49%. On the same count and under the same terms, under `COc1cc(OC)c([C@@H]2CCCC[C@H]2O)c(O)c1C(=O)/C=C/c1cc(C)ccc1C` (relative stereo) [Compound 21 of Table 2, trans-(+/-)-2-[4,6-Dimethoxy-2-hydroxy-3-(3-(2,5-dimethylphenyl))prop-2-(E)-enoyl]phenylcyclohexanol monohydrate] stands 96%. `COc1cc(/C=C/C(=O)c2c(OC)cc(OC)c([C@@H]3CCCC[C@H]3O)c2O)cc(Br)c1OC` (relative stereo) [Compound 26 of Table 2]: the inhibition at 9.5 µM (Homo sapiens, 9.5 μM, read-out: IL-1 Rel. Inhib.) came to 50%. Take `COc1cc(OC)c([C@@H]2CCCC[C@H]2O)c(O)c1C(=O)/C=C/c1cccc(N)c1` (relative stereo) [Compound 28 of Table 2]: the inhibition at 1 µM under setting [1] stood at 33%.

Regarding `COc1cc(OC)c([C@@H]2CCCC[C@H]2OC(=O)CN)c(O)c1C(=O)/C=C/c1cccc(Br)c1` [Compound 5 of Table 2, trans-(-)-2-[4,6-Dimethoxy-2-hydroxy-3-(3-(3-bromophenyl)prop-2-(E)-enoyl)phenyl]cyclohexyl-2-amino acetate hydrochloride monohydrate], the inhibition at 1 µM under setting [1] amounted to 95%. On to `COc1cc(OC)c([C@H]2CCCC[C@@H]2OC(=O)CN)c(O)c1C(=O)/C=C/c1cccc(Br)c1` [Compound 6 of Table 2, trans-(+)-2-[4,6-Dimethoxy-2-hydroxy-3-(3-(3-bromophenyl)prop-2-(E)-enoyl)phenyl]cyclohexyl-2-amino acetate hydrochloride monohydrate], for which the inhibition at 1 µM under setting [1] is 88%. Regarding `COc1cc(OC)c([C@@H]2CCCC[C@H]2O)c(O)c1C(=O)/C=C/c1cccc(Br)c1` [Compound 14 of Table 2, trans-(-)-2-[4,6-Dimethoxy-2-hydroxy-3-(3-(3-bromophenyl))prop-2-(E)-enoyl]phenylcyclohexanol], the inhibition at 0.3 µM under setting [1] was 50%. On to `COc1cc(OC)c([C@H]2CCCC[C@@H]2O)c(O)c1C(=O)/C=C/c1cccc(Br)c1` [Compound 15 of Table 2, trans-(+)-2-[4,6-Dimethoxy-2-hydroxy-3-(3-(3-bromophenyl))prop-2-(E)-enoyl]phenylcyclohexanol], for which the inhibition at 0.3 µM under setting [1] was determined as 50%. On to `COc1cc(OC)c(C2CCCCC2)c(O)c1C(=O)/C=C/c1ccc(Cl)cc1` [Compound 22 of Table 2], for which, where the note is “Homo sapiens, 12 μM, read-out: IL-1 Rel. Inhib.”, the inhibition at 12 µM is 30%.
